Assay results reported in US8673882B2, “Inhibitors of autotaxin” (University of Tennessee Research Foundation, priority 2011, dated 2014).
“Also recorded” adds a separate entry of the source.

Experiments:
[1] = target: T1, NPP6 (Homo sapiens, UniProt Q6UWR7); test: NPP-6 inhibition assay (pNPPC substrate); type: biochemical; details: 10 μM compound; 8.3 nM enzyme; 10 μM pNPPC; read-out: NPP6 Activity, % control (10 μM)
T1 sequence (Q6UWR7 23-419): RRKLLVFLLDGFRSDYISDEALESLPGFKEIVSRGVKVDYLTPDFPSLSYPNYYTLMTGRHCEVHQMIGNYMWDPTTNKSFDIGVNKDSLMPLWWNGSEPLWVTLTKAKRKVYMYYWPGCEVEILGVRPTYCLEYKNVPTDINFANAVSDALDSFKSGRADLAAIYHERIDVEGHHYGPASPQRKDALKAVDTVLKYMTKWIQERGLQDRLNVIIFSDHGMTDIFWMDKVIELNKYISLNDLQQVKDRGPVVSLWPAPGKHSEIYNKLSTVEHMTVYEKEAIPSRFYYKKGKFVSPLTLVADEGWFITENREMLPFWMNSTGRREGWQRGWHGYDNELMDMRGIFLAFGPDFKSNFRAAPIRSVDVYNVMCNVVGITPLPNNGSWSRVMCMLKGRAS
Protocol: (§1) NPP6 and NPP7 are the only NPP isoforms other than ATX that are known to utilize lysophospholipid phosphodiesters as substrates. Therefore, the specificity of the chemical compounds of the invention regarding ATX was addressed by determining the activity of NPP6 and NPP7 in the presence and absence of these analogs.
(§2) Inhibition of NPP6 and NPP7 was evaluated using recombinant, purified proteins, the synthetic substrate para-nitrophenylphosphocholine (pNPPC) and a Synergy II plate reader (BioTek, Winooski, Vt.). The final concentration of each enzyme was 8.3 nM and pNPPC was 10 μM. All analogs were tested at single 10 μM concentrations. Absorbance of liberated para-nitrophenol at 405 nm was determined up to 1 hour (where responses were linear) and was normalized to vehicle control.

[2] = tested on: MM1 hepatocarcinoma cells; test: Invasion of mesothelial cell monolayer by MM1 cells; type: cell-based, rat; details: with LPC; FIG. 12 panel E
From the text: Cancer metastasis is a complex process that cannon be accurately modeled in vitro. Models that utilize cellular monolayers for the invasion of carcinoma cell come the closest to the situation in vivo. Two different cell monolayers, mouse mesothelium and human vascular endothelium were used to examine the role of ATX in the invasion of MM1 hepatocarcinoma cells and the reduction of such invasion by the chemical compounds of the present application. The mesothelial monolayer is an accepted model for invasion of body cavities lined by serous cells whereas, the HUVEC monolayer is considered to be an in vitro model of hematogenous invasion of carcinomas.
Highly invasive MM1 cells originally isolated from the AH130 rat hepatoma cells were utilized in these studies. The cells were grown in suspension in DMEM supplemented with 10% fetal bovine serum, 2 mM glutamine, 100 units/ml penicillin and 10 μg/ml streptoinycin. Mesothelial cells were isolated and cultured from C57BL/6 mice. Human umbilical cord vascular endothelial cells (HUVEC) were obtained from VEC Technologies Inc., (Rensselaer, N.Y., USA) and were grown in MCDB-131 complete medium containing 10% fetal bovine serum. 90 μg/ml heparin, 10 ng/ml EGF, 1 μg/ml hydrocortisone, 0.2 mg/ml EndoGrowth supplement, 100 units/ml penicillin G, 100 μg/ml streptomycin and 25 μg/ml amphotericin B (all from VEC Technologies). Tumor cell invasion was performed by seeding 1.3×10^5 HUVECs (passage 7) into each well of a 12-well plate pre-coated with 0.2% gelatin (Sigma) and cultured for 2 days to form a confluent monolayer. Mesothelial cells harvested from two-three mice were initially plated in 6-well plates and grown to confluency in DMEM medium supplemented with 10% fetal bovine serum in the presence of 100 units/ml penicillin G and 10 μg/ml streptomycin. When confluent, the mesothelial cells were split into three equal aliquots (˜5×10^4 cells each) and plated to three wells of a 12-well plate and grown to confluence.
Invasion of MM1 cells of Example 53 was determined and the effect of compounds of the present application in reducing the invasion was determined. For all invasion assays, MM1 cells were pre-stained with 2 μg/ml calcein AM (Invitrogen, USA) for 2 h, rinsed once, and seeded at a density of 5×10^4 cells/well over the monolayers. […] The number of tumor cells that penetrated the monolayer was photographed under a NIKON TiU inverted microscope using phase-contrast and fluorescence illumination in a minimum of five non-overlapping fields at 100× magnification. The fluorescent images were overlayed on top of the phase contrast images using the Elements BR software (version 3.1x) and the invaded MM1 cells showing the characteristic flattened morphology in the plane of focus underneath the monolayer were counted. […]

[3] = target: T2, NPP7 (Homo sapiens, UniProt Q6UWV6); test: NPP-7 inhibition assay (pNPPC substrate); type: biochemical; details: 10 μM compound; 8.3 nM enzyme; 10 μM pNPPC; read-out: NPP7 Activity, % control (10 μM)
T2 sequence (Q6UWV6 22-458): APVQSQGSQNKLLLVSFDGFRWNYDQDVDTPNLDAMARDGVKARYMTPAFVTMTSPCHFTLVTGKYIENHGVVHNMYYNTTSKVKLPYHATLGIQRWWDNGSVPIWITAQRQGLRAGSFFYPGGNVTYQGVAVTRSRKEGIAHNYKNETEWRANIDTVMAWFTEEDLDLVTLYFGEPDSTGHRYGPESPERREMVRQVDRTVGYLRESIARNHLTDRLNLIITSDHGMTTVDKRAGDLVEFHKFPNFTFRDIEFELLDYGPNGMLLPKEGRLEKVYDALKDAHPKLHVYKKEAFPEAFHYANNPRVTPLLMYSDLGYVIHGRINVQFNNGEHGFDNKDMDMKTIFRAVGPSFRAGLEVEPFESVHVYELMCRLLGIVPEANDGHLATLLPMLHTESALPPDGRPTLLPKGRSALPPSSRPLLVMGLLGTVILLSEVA
Protocol: as §1, §2

[4] = target: recombinant human ATX (Homo sapiens, UniProt Q13822); test: Autotaxin inhibition screening assay (FS-3 FRET substrate); type: biochemical; details: FS3 hydrolysis

Row | Compound | remaining activity at 10 µM [1] [%] | MM1 cell invasion of the mesothelial monolayer [2] | remaining activity at 10 µM [3] [%] | ATX inhibition in dose-response curves (FIG. 10) [4]
1 | CCCCCCCCCCCCCCCc1ccc(CP(=O)(O)O)cc1 [Compound 22, 4-Pentadecylbenzylphosphonic acid] | 96.5 | inhibited; also recorded: inhibition | 96.7 | dose-dependently and completely inhibited ATX
2 | CCCCCCCCCCC/C=C/c1ccc2cc(CP(=O)(O)O)ccc2c1 [Compound 30b, (E)-6-Tridec-1-enyl-naphthalen-2-yl-methylphosphonic acid] | 104 | inhibited | 96.5 | dose-dependently and completely inhibited ATX
